Laboratory results reported in patent US20260053861A1, “CELL COMPOSITIONS AND METHODS OF USING THE SAME” (THE REGENTS OF THE UNIVERSITY OF CALIFORNIA, priority 2022, published 2026).
Where a name gives a salt, the structure may show the parent alone.

Test system: hPSC-SCs
Conditions: not given

In order of falling z.score.t:
1. C=C1CC[C@H](O)C/C1=C/C=C1\CCC[C@]2(C)[C@@H]([C@H](C)CCCC(C)C)CC[C@@H]12 [Cholecalciferol]  1.034
2. CCN(CC)CCCC(C)Nc1ccnc2cc(Cl)ccc12 (stereo not shown) [Chloroquine diphosphate]  0.7847
3. CCCC(C)(COC(N)=O)COC(=O)NC(C)C (stereo not shown) [Carisoprodol]  0.425
4. CC(C)(C)NCC(O)c1cc(Cl)c(N)c(Cl)c1 (stereo not shown) [Clenbuterol hydrochloride]  0.4048
5. CCC1=C[C@@H]2CN3CCc4c([nH]c5ccccc45)[C@@](C(=O)OC)(C2)[C@@H]13 [Catharanthine]  0.2625
6. CN1C(=O)CCS(=O)(=O)C1c1ccc(Cl)cc1 (stereo not shown) [Chlormezanone]  −0.5532
7. CC(=O)OCC1=C(C(=O)O)N2C(=O)[C@@H](N)[C@H]2SC1 [Cephalosporanic acid, 7-amino]  −0.7049
8. O=C(O)CCCc1ccc(N(CCCl)CCCl)cc1 [Chlorambucil]  −1.263
9. O=C1C=CC(=O)c2c1ccc1c2ccc2ccccc21 [Chrysene-1,4-quinone]  −1.823
10. C[C@@]12C(=O)OC(=O)[C@]1(C)[C@H]1CC[C@@H]2O1 [Cantharidin]  −2.175

Same assay, conditions: HTS viability of hPSC-SCs in the presence of 30 mM glucose; Prestwick library; Table S4

In order of falling z.score.t:
1. C[C@H](CS)C(=O)N1CCC[C@H]1C(=O)O [Captopril]  2.207
2. CO/N=C(\C(=O)N[C@@H]1C(=O)N2C(C(=O)O)=C(COC(C)=O)CS[C@H]12)c1csc(N)n1 [Cefotaxime sodium salt]  1.931
3. C[N+]12CCC(CC1)C(OC(=O)C(O)(c1ccccc1)c1ccccc1)C2 (stereo not shown) [Clidinium bromide]  1.743
4. O=C1CCc2cc(OCCCCc3nnnn3C3CCCCC3)ccc2N1 [Cilostazol]  1.73
5. C[C@H](CCC(=O)O)[C@H]1CC[C@H]2[C@@H]3[C@H](O)C[C@@H]4C[C@H](O)CC[C@]4(C)[C@H]3CC[C@]12C [Chenodiol]  1.481
6. CCC(=O)O[C@]1(C(=O)CCl)[C@@H](C)C[C@H]2[C@@H]3CCC4=CC(=O)C=C[C@]4(C)[C@@]3(F)[C@@H](O)C[C@@]21C [Clobetasol propionate]  1.323
7. O=C(N[C@H](CO)[C@H](O)c1ccc([N+](=O)[O-])cc1)C(Cl)Cl [Chloramphenicol]  1.278
8. CC(C)(C)NCC(O)COc1cccc2c1CCC(=O)N2 (stereo not shown) [Carteolol hydrochloride]  1.266
9. C=C[C@H]1C[N@@]2CC[C@H]1C[C@@H]2[C@@H](O)c1ccnc2ccccc12 [Cinchonine]  1.252
10. NS(=O)(=O)c1cc2c(cc1Cl)N=CNS2(=O)=O [Chlorothiazide]  1.171
11. CC1(C)[C@@H](OC(=O)CCC(=O)O)CC[C@]2(C)[C@H]3C(=O)C=C4[C@@H]5C[C@@](C)(C(=O)O)CC[C@]5(C)CC[C@@]4(C)[C@]3(C)CC[C@@H]12 [Carbenoxolone disodium salt]  1.163
12. CC1=C(C(=O)O)N2C(=O)[C@@H](NC(=O)[C@H](N)c3ccccc3)[C@H]2SC1 [Cephalexin monohydrate]  1.08
13. COc1cc(N)c(Cl)cc1C(=O)NC1CCN(Cc2ccccc2)CC1 [Clebopride maleate]  1.08
14. [H]/N=C(\N/C(=N/[H])NCCCCCCNC(=N)NC(=N)Nc1ccc(Cl)cc1)Nc1ccc(Cl)cc1 [Chlorhexidine]  1.056
15. CCn1nc(C(=O)O)c(=O)c2cc3c(cc21)OCO3 [Cinoxacin]  0.9525
16. O=C(/C=C/c1ccc(O)c(O)c1)O[C@@H]1C[C@](O)(C(=O)O)C[C@@H](O)[C@H]1O [Chlorogenic acid]  0.888
17. NCCC(=O)NCCc1c[nH]cn1 [Carcinine]  0.8711
18. NC(=O)N1c2ccccc2C=Cc2ccccc21 [Carbamazepine]  0.8158
19. Clc1ccc(Cn2c(CN3CCCC3)nc3ccccc32)cc1 [Clemizole hydrochloride]  0.7789
20. CO[C@@]1(NC(=O)Cc2cccs2)C(=O)N2C(C(=O)O)=C(COC(N)=O)CS[C@@H]21 [Cefoxitin sodium salt]  0.6964
21. COc1cc(-c2ccc(N=Nc3ccc4c(S(=O)(=O)[O-])cc(S(=O)(=O)[O-])c(N)c4c3O)c(OC)c2)ccc1N=Nc1ccc2c(S(=O)(=O)[O-])cc(S(=O)(=O)[O-])c(N)c2c1O.[Na+].[Na+].[Na+].[Na+] [Chicago sky blue 6B]  0.6578
22. O=C(O)c1cn(C2CC2)c2cc(N3CCNCC3)c(F)cc2c1=O [Ciprofloxacin hydrochloride]  0.6386
23. CC(C)(O/N=C(\C(=O)N[C@@H]1C(=O)N2C(C(=O)[O-])=C(C[n+]3ccccc3)CS[C@H]12)c1csc(N)n1)C(=O)O [Ceftazidime pentahydrate]  0.563
24. CN(C)CCC(c1ccc(Cl)cc1)c1ccccn1 (stereo not shown) [Chlorpheniramine maleate]  0.5452
25. CC1=C(C(=O)O)N2C(=O)[C@@H](NC(=O)[C@H](N)c3ccc(O)cc3)[C@H]2SC1 [Cefadroxil]  0.5046
26. C=CC1=C(C(=O)O)N2C(=O)[C@@H](NC(=O)/C(=N\OCC(=O)O)c3csc(N)n3)[C@H]2SC1 [Cefixime]  0.5046
27. CN/C(=N/CCSCc1nc[nH]c1C)NC#N [Cimetidine]  0.4346
28. COc1cc(N)c(Cl)cc1C(=O)NC1CCN(CCCOc2ccc(F)cc2)CC1OC (stereo not shown) [Cisapride]  0.3436
29. CCN(CC)CCOCCOC(=O)C1(c2ccccc2)CCCC1 [Carbetapentane citrate]  0.3024
30. O=c1cc(-c2ccccc2)oc2cc(O)cc(O)c12 [Chrysin]  0.2139
31. CCCNC(=O)NS(=O)(=O)c1ccc(Cl)cc1 [Chlorpropamide]  0.1979
32. CO[C@@]1(NC(=O)CSCC#N)C(=O)N2C(C(=O)O)=C(CSc3nnnn3C)CS[C@@H]21 [Cefmetazole sodium salt]  0.1916
33. C[C@]12CCC(=O)C=C1C=C[C@@H]1[C@@H]2CC[C@@]2(C)[C@H]1CC[C@@]2(O)CCC(=O)O [Canrenoic acid potassium salt]  0.05523
34. COc1cc(CNC(=O)CCCC/C=C/C(C)C)ccc1O [Capsaicin]  0.03421
35. CN(C)[C@@H]1C(O)=C(C(N)=O)C(=O)[C@@]2(O)C(O)=C3C(=O)c4c(O)ccc(Cl)c4[C@@](C)(O)[C@H]3C[C@@H]12 [Chlortetracycline hydrochloride]  0.02534
36. NC(=O)c1cc[n+](CC2=C(C(=O)O)N3C(=O)[C@@H](NC(=O)[C@@H](c4ccccc4)S(=O)(=O)[O-])[C@H]3SC2)cc1 [Cefsulodin sodium salt]  −0.03362
37. NC(=O)OCC(O)COc1ccc(Cl)cc1 (stereo not shown) [Chlorphensin carbamate]  −0.09426
38. C[N+](C)(C)CCOC(N)=O [Carbachol]  −0.1239
39. CCOC(=O)n1ccn(C)c1=S [Carbimazole]  −0.2276
40. CC(C)(Oc1ccc(C2CC2(Cl)Cl)cc1)C(=O)O (stereo not shown) [Ciprofibrate]  −0.2611
41. Oc1c(I)cc(Cl)c2cccnc12 [Clioquinol]  −0.2802
42. O=C(O)COCCN1CCN(C(c2ccccc2)c2ccc(Cl)cc2)CC1 (stereo not shown) [Cetirizine dihydrochloride]  −0.3112
43. NC(=O)c1cc[n+](CC2=C(C(=O)[O-])N3C(=O)[C@@H](NC(=O)Cc4cccs4)[C@H]3SC2)cc1 [Cefalonium]  −0.3867
44. CO[C@@]1(NC(=O)C2SC(=C(C(N)=O)C(=O)O)S2)C(=O)N2C(C(=O)O)=C(CSc3nnnn3C)CS[C@@H]21 (stereo partly shown) [Cefotetan]  −0.4942
45. CN(C)CCN(Cc1ccc(Cl)cc1)c1ccccn1 [Chloropyramine hydrochloride]  −0.5169
46. COc1ccc(C(Cl)=C(c2ccc(OC)cc2)c2ccc(OC)cc2)cc1 [Chlorotrianisene]  −0.5169
47. CN(C)CCCC1(c2ccc(F)cc2)OCc2cc(C#N)ccc21 (stereo not shown) [Citalopram Hydrobromide]  −0.5169
48. NCc1ccccc1CC(=O)N[C@@H]1C(=O)N2C(C(=O)O)=C(CSc3nnnn3CC(=O)O)CS[C@H]12 [Ceforanide]  −0.5532
49. Cc1nnc(SCC2=C(C(=O)O)N3C(=O)[C@@H](NC(=O)Cn4cnnn4)[C@H]3SC2)s1 [Cefazolin sodium salt]  −0.6194
50. CN(C)CC/C=C1/c2ccccc2Sc2ccc(Cl)cc21 [Chlorprothixene hydrochloride]  −0.6678
51. N[C@@H](C(=O)N[C@@H]1C(=O)N2C(C(=O)O)=C(Cl)CS[C@H]12)c1ccccc1 [Cefaclor]  −0.7233
52. CCN1CCN(C(=O)N[C@@H](C(=O)N[C@@H]2C(=O)N3C(C(=O)O)=C(CSc4nnnn4C)CS[C@H]23)c2ccc(O)cc2)C(=O)C1=O [Cefoperazone dihydrate]  −0.7233
53. Cn1nnnc1SCC1=C(C(=O)O)N2C(=O)[C@@H](NC(=O)[C@H](O)c3ccccc3)[C@H]2SC1 [Cefamandole sodium salt]  −0.7376
54. CO/N=C(\C(=O)N[C@@H]1C(=O)N2C(C(=O)O)=C(COC(N)=O)CS[C@H]12)c1ccco1 [Cefuroxime sodium salt]  −0.8132
55. C(=C\c1ccccc1)/CN1CCN(C(c2ccccc2)c2ccccc2)CC1 [Cinnarizine]  −0.8513
56. CO/N=C(\C(=O)N[C@@H]1C(=O)N2C(C(=O)O)=C(C[N+]3(C)CCCC3)CS[C@H]12)c1csc(N)n1 [Cefepime hydrochloride]  −0.9926
57. NS(=O)(=O)c1cc(C2(O)NC(=O)c3ccccc32)ccc1Cl (stereo not shown) [Chlorthalidone]  −1.061
58. CN(C)CCn1nnnc1SCC1=C(C(=O)O)N2C(=O)[C@@H](NC(=O)Cc3csc(N)n3)[C@H]2SC1 [Cefotiam hydrochloride]  −1.122
59. CC(=O)OCC1=C(C(=O)O)N2C(=O)[C@@H](NC(=O)Cc3cccs3)[C@H]2SC1 [Cephalothin sodium salt]  −1.359
60. Cc1cc(C2CCCCC2)n(O)c(=O)c1.NCCO [Ciclopirox ethanolamine]  −1.422
61. CN(C)CCCN1c2ccccc2Sc2ccc(Cl)cc21 [Chlorpromazine hydrochloride]  −1.622
62. CN1CCN(C(c2ccccc2)c2ccc(Cl)cc2)CC1 (stereo not shown) [Chlorcyclizine hydrochloride]  −1.754
63. CN1CCC[C@@H]1CCO[C@](C)(c1ccccc1)c1ccc(Cl)cc1 [Clemastine fumarate]  −1.892
